Data published in patent publication US20120122903A1, “1-H-QUINAZOLINE-2, 4-DIONES FOR USE IN THE TREATMENT OF NEURONAL CEROID LIPOFUSCINOSIS” (priority 2009, published 2012).

Experiments:
[1] = system: mouse; test: Oral activity in vivo (audiogenic mouse test and/or MES test); conditions: oral administration
Method: The oral bioavailability was tested using the audiogenic mouse test (Audiogenic seizures, R. L. Collins; Chapter 14, pages: 347-372. In: Experimental Models of Epilepsy; By: Pupura, Penry, Tower, Woodbury, Waiter, Raven Press, New York, 1972. Standard Book Number: 0-911216-26-X) and/or the MES test.

[2] = system: OF1 mice; test: Murine maximal electroshock test (MES test); assay type: in vivo, mouse; conditions: for ED50: Mus musculus, po, pre-treatment time 1 h; for MES-Test (1 h, po) % protection @ 50: p.o., percentage of protected mice, printed '@ 50' (mg/kg)
Method: Compounds of the invention were tested in OF1 mice using the maximal electroshock test (MES Test) described in detail by Schmutz et al., Naunyn-Schmiedeberg's Arch Pharmacol 1990, 342, 61-66. Briefly, generalized tonic-clonic convulsions of the hind extremities were induced by passing electrical current through temporal electrodes (50 Hz, 18 mA, 0.2 s). […] 30 mg/kg carbamazepine was used as a positive control; mice were classified as protected by a compound if the duration of the seizure lasted only 3 second or less. Five mice were used for each treatment condition and the percentage of protected mice was used as readout (i.e. a compound could give 0%, 20%, 40%, 60%, 80% or 100% protection). Compounds of the invention were given at a dose of 50 mg/kg, p.o., 1 hour prior to induction of convulsions (i.e. “pre-treatment time−1 h”).
ED50 values (ED: effective dose) were calculated using GraphPad Prism, v4.02.
15 s after shock administration, mouse blood was collected for determination of compounds' blood exposure.

[3] = system: OF1 mice; test: Murine maximal electroshock test (MES test); assay type: in vivo, mouse; conditions: p.o., percentage of protected mice, printed '@ 25' (mg/kg)

CC(C)OC(C)c1cc2c(=O)n(NS(C)(=O)=O)c(=O)[nH]c2cc1C(F)(F)F (centres unmarked) [Compound A-4, N-[6-(1-Isopropoxy-ethyl)-2,4-dioxo-7-trifluoromethyl-1,4-dihydro-2H-quinazolin-3-yl]-methanesulfonamide]
In vivo orally active [1]: Yes
ED50 [2]: 15.6 mg/kg

CC(C)n1nccc1-c1cc2c(=O)n(NS(C)(=O)=O)c(=O)[nH]c2cc1C(F)F [Compound C-10, N-[7-Difluoromethyl-6-(2-isopropyl-2H-pyrazol-3-yl)-2,4-dioxo-1,4-dihydro-2H-quinazolin-3-yl]-methanesulfonamide]
In vivo orally active [1]: Yes
ED50 [2]: 20.3 mg/kg

Cn1nccc1-c1cc2c(=O)n(NS(C)(=O)=O)c(=O)[nH]c2cc1C(F)F [Compound C-9, N-[7-Difluoromethyl-6-(2-methyl-2H-pyrazol-3-yl)-2,4-dioxo-1,4-dihydro-2H-quinazolin-3-yl]-methanesulfonamide]
In vivo orally active [1]: Yes
ED50 [2]: 7.5 mg/kg

COCCn1nccc1-c1cc2c(=O)n(NS(C)(=O)=O)c(=O)[nH]c2cc1C(C)C [Compound C-1, N-{7-Isopropyl-6-[2-(2-methoxy-ethyl)-2H-pyrazol-3-yl]-2,4-dioxo-1,4-dihydro-2H-quinazolin-3-yl}-methanesulfonamide]
MES-Test (1 h, po) % protection @ 25 [3]: 40% @ 25^
In vivo orally active [1]: yes

COC(C)c1cc2c(=O)n(NS(C)(=O)=O)c(=O)[nH]c2cc1C(F)(F)F (centres unmarked) [Compound A-2, N-[6-(1-Methoxy-ethyl)-2,4-dioxo-7-trifluoromethyl-1,4-dihydro-2H-quinazolin-3-yl]-methanesulfonamide]
In vivo orally active [1]: Yes
ED50 [2]: 6 mg/kg

CC(C)n1nccc1-c1cc2c(=O)n(NS(C)(=O)=O)c(=O)[nH]c2cc1C(F)(F)F [Compound C-2, N-[6-(2-Isopropyl-2H-pyrazol-3-yl)-2,4-dioxo-7-trifluoromethyl-1,4-dihydro-2H-quinazolin-3-yl]-methanesulfonamide]
In vivo orally active [1]: Yes
ED50 [2]: 17.7 mg/kg

CC(OC1CCCC1)c1cc2c(=O)n(NS(C)(=O)=O)c(=O)[nH]c2cc1C(F)(F)F (centres unmarked) [Compound A-14, N-[6-(1-Cyclopentyloxy-ethyl)-2,4-dioxo-7-trifluoromethyl-1,4-dihydro-2H-quinazolin-3-yl]-methanesulfonamide]
In vivo orally active [1]: yes

CCC(O)c1cc2c(=O)n(NS(C)(=O)=O)c(=O)[nH]c2cc1C(F)(F)F (centres unmarked) [Compound A-3, N-[6-(1-Hydroxy-propyl)-2,4-dioxo-7-trifluoromethyl-1,4-dihydro-2H-quinazolin-3-yl]-methanesulfonamide]
In vivo orally active [1]: Yes
ED50 [2]: 19.6 mg/kg

CS(=O)(=O)Nn1c(=O)[nH]c2cc(C(F)(F)F)c(C3CCCO3)cc2c1=O (centres unmarked) [Compound B-2, N-[2,4-Dioxo-6-(tetrahydro-furan-2-yl)-7-trifluoromethyl-1,4-dihydro-2H-quinazolin-3-yl]-methanesulfonamide]
In vivo orally active [1]: Yes

CS(=O)(=O)Nn1c(=O)[nH]c2cc(C(F)(F)F)c(C3CCOC3)cc2c1=O (centres unmarked) [Compound B-3, N-[2,4-Dioxo-6-(tetrahydro-furan-3-yl)-7-trifluoromethyl-1,4-dihydro-2H-quinazolin-3-yl]-methanesulfonamide]
MES-Test (1 h, po) % protection @ 25 [3]: 20% @ 25^3
In vivo orally active [1]: Yes

COCCC(O)c1cc2c(=O)n(NS(C)(=O)=O)c(=O)[nH]c2cc1C(F)(F)F (centres unmarked) [Compound A-18, N-[6-(1-Hydroxy-3-methoxy-propyl)-2,4-dioxo-7-trifluoromethyl-1,4-dihydro-2H-quinazolin-3-yl]-methanesulfonamide]
In vivo orally active [1]: Yes

Cn1nncc1-c1cc2c(=O)n(NS(C)(=O)=O)c(=O)[nH]c2cc1C(F)(F)F [Comparative, N-(6-(1-methyl-1H-1,2,3-triazol-5-yl)-2,4-dioxo-7-trifluoromethyl-1,4-dihydro-2H-quinazolin-3-yl]-methanesulfonamide, reference compound]
In vivo orally active [1]: No
MES-Test (1 h, po) % protection @ 50 [2]: 0% @ 50^

COCCn1nccc1-c1cc2c(=O)n(NS(C)(=O)=O)c(=O)[nH]c2cc1C(F)(F)F [Compound C-4, N-{6-[2-(2-Methoxy-ethyl)-2H-pyrazol-3-yl]-2,4-dioxo-7-trifluoromethyl-1,4-dihydro-2H-quinazolin-3-yl}-methanesulfonamide]
In vivo orally active [1]: Yes

CC(F)c1cc2[nH]c(=O)n(NS(C)(=O)=O)c(=O)c2cc1-c1ccnn1C(C)C (centres unmarked) [Compound C-17, N-[7-(1-fluoro-ethyl)-6-(2-isopropyl-2H-pyrazol-3-yl)-2,4-dioxo-1,4-dihydro-2H-quinazolin-3-yl]-methanesulfonamide]
In vivo orally active [1]: Yes
ED50 [2]: > 20 mg/kg

CCc1cc2[nH]c(=O)n(NS(C)(=O)=O)c(=O)c2cc1-c1ccnn1C(C)C [Compound C-6, N-[7-Ethyl-6-(2-isopropyl-2H-pyrazol-3-yl)-2,4-dioxo-1,4-dihydro-2H-quinazolin-3-yl]-methanesulfonamide]
In vivo orally active [1]: yes
MES-Test (1 h, po) % protection @ 50 [2]: 20% @ 50^

CC(C)n1nccc1-c1cc2c(=O)n(NS(C)(=O)=O)c(=O)[nH]c2cc1C(C)(F)F [Compound C-16, N-[7-(1,1-difluoro-ethyl)-6-(2-isopropyl-2H-pyrazol-3-yl)-2,4-dioxo-1,4-dihydro-2H-quinazolin-3-yl]-methanesulfonamide]
In vivo orally active [1]: Yes

CC(C)c1cc2[nH]c(=O)n(NS(C)(=O)=O)c(=O)c2cc1-c1ccnn1C [Compound C-7, N-[7-Isopropyl-6-(2-methyl-2H-pyrazol-3-yl)-2,4-dioxo-1,4-dihydro-2H-quinazolin-3-yl]-methanesulfonamide]
In vivo orally active [1]: Yes
ED50 [2]: 6.9 mg/kg

CCc1cc2[nH]c(=O)n(NS(C)(=O)=O)c(=O)c2cc1-c1ccnn1CC [Compound C-12, N-[7-Ethyl-6-(2-ethyl-2H-pyrazol-3-yl)-2,4-dioxo-1,4-dihydro-2H-quinazolin-3-yl]-methanesulfonamide]
In vivo orally active [1]: Yes
ED50 [2]: 42.8 mg/kg

CS(=O)(=O)Nn1c(=O)[nH]c2cc(C(F)(F)F)c(-c3ccnn3O)cc2c1=O [Compound C-5, N-[6-(2-Hydroxy-2H-pyrazol-3-yl)-2,4-dioxo-7-trifluoromethyl-1,4-dihydro-2H-quinazolin-3-yl]-methanesulfonamide]
In vivo orally active [1]: Yes

CC(C)c1cc2[nH]c(=O)n(NS(C)(=O)=O)c(=O)c2cc1-c1ccnn1C(C)C [Compound C-8, N-[7-Isopropyl-6-(2-isopropyl-2H-pyrazol-3-yl)-2,4-dioxo-1,4-dihydro-2H-quinazolin-3-yl]-methanesulfonamide]
In vivo orally active [1]: yes
MES-Test (1 h, po) % protection @ 50 [2]: 40% @ 50^

CCOC(C)c1cc2c(=O)n(NS(C)(=O)=O)c(=O)[nH]c2cc1C(F)(F)F (centres unmarked) [Compound A-5, N-[6-(1-Ethoxy-ethyl)-2,4-dioxo-7-trifluoromethyl-1,4-dihydro-2H-quinazolin-3-yl]-methanesulfonamide]
In vivo orally active [1]: Yes
ED50 [2]: 8.8 mg/kg

Cn1nccc1-c1cc2c(=O)n(NS(C)(=O)=O)c(=O)[nH]c2cc1C(F)(F)F [Compound C-18, N-[6-(2-Methyl-2H-pyrazol-3-yl)-2,4-dioxo-7-trifluoromethyl-1,4-dihydro-2H-quinazolin-3-yl]-methanesulfonamide]
In vivo orally active [1]: Yes
ED50 [2]: 14.8 mg/kg

CC(O)c1cc2c(=O)n(NS(C)(=O)=O)c(=O)[nH]c2cc1C(F)(F)F (centres unmarked) [Compound A-1, N-[6-(1-Hydroxy-ethyl)-2,4-dioxo-7-trifluoromethyl-1,4-dihydro-2H-quinazolin-3-yl]-methanesulfonamide]
In vivo orally active [1]: Yes
ED50 [2]: 64 mg/kg

CCC(OC(C)C)c1cc2c(=O)n(NS(C)(=O)=O)c(=O)[nH]c2cc1C(F)(F)F (centres unmarked) [Compound A-7, N-[6-(1-Isopropoxy-propyl)-2,4-dioxo-7-trifluoromethyl-1,4-dihydro-2H-quinazolin-3-yl]-methanesulfonamide]
In vivo orally active [1]: Yes
ED50 [2]: 24.7 mg/kg

CCc1cc2[nH]c(=O)n(NS(C)(=O)=O)c(=O)c2cc1-c1ccnn1C [Compound C-11, N-[7-Ethyl-6-(2-methyl-2H-pyrazol-3-yl)-2,4-dioxo-1,4-dihydro-2H-quinazolin-3-yl]-methanesulfonamide]
In vivo orally active [1]: Yes
ED50 [2]: 6.1 mg/kg

CCCC(O)c1cc2c(=O)n(NS(C)(=O)=O)c(=O)[nH]c2cc1C(F)(F)F (centres unmarked) [Compound A-15, N-[6-(1-Hydroxy-butyl)-2,4-dioxo-7-trifluoromethyl-1,4-dihydro-2H-quinazolin-3-yl]-methanesulfonamide]
In vivo orally active [1]: Yes
ED50 [2]: 35 mg/kg

CCOC(CC)c1cc2c(=O)n(NS(C)(=O)=O)c(=O)[nH]c2cc1C(F)(F)F (centres unmarked) [Compound A-13, N-[6-(1-Ethoxy-propyl)-2,4-dioxo-7-trifluoromethyl-1,4-dihydro-2H-quinazolin-3-yl]-methanesulfonamide]
In vivo orally active [1]: Yes
